molecular target: T1, human orexin type 2 receptor (Homo sapiens, UniProt O43614); experiment: Measurement of orexin type 2 receptor agonist activity (calcium fluorescence, Fluo-4 AM, FDSS) in CHO cells forcibly expressing human OX2 receptor; type: cell-based; details: test compound 3 μM, DMSO = 0%, orexin A (human) 10 nM = 100%
T1 construct: expressed in transfected cells
T1 sequence (O43614 1-444): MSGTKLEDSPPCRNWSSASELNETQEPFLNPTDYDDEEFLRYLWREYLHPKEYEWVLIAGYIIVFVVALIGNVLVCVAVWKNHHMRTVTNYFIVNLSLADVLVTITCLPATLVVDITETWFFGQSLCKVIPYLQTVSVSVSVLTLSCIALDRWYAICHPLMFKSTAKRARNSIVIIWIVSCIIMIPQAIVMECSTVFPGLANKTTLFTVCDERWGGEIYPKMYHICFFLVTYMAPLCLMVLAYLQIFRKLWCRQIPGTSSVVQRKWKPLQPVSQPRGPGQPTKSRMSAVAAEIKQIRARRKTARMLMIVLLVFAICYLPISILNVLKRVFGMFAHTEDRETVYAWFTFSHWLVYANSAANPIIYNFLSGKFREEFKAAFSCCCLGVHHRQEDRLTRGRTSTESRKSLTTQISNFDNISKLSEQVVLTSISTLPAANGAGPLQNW
Outline: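 CHO-dhfr cells stably expressing human OX2 receptor, loaded with Fluo-4 AM plus probenecid for 30 min at 37 °C, then 30 min at room temperature. Calcium fluorescence read for about 2 min 40 s after compound addition. Activity (%) scaled between DMSO (0%) and 10 nM human orexin A (100%).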

SMILES	0X2R agonist activity (3 μM, %)
CS(=O)(=O)N[C@H]1CCc2ccc(C3CC3)c(=O)n2[C@H]1Cc1cccc(-c2ccccc2)c1 (racemic) [Example 22, rac-N-{(3S,4S)-4-[([1,1′-biphenyl]-3-yl)methyl]-7-cyclopropyl-6-oxo-1,3,4,6-tetrahydro-2H-quinolizin-3-yl}methanesulfonamide]	106%
CCn1c(C)nc2c(c1=O)[C@@H](Cc1cccc(-c3cccc(C)c3)c1)[C@@H](NS(C)(=O)=O)CC2 (racemic) [Example 78, rac-N-{(5R,6S)-3-ethyl-2-methyl-5-[(3′-methyl[1,1′-biphenyl]-3-yl)methyl]-4-oxo-3,4,5,6,7,8-hexahydroquinazolin-6-yl}methanesulfonamide]	100%
CC(C)n1ccc2c(c1=O)[C@@H](Cc1cccc(-c3cccc(F)c3)c1)[C@@H](NS(C)(=O)=O)CC2 (racemic) [Example 74, rac-N-[(7S,8R)-8-[(3′-fluoro[1,1′-biphenyl]-3-yl)methyl]-1-oxo-2-(propan-2-yl)-1,2,5,6,7,8-hexahydroisoquinolin-7-yl]methanesulfonamide]	91%
CCn1ccc2c(c1=O)[C@@H](Cc1cccc(-c3cccc(F)c3)c1)[C@@H](NS(C)(=O)=O)CC2 (racemic) [Example 79, rac-N-{(7S,8R)-2-ethyl-8-[(3′-fluoro[1,1′-biphenyl]-3-yl)methyl]-1-oxo-1,2,5,6,7,8-hexahydroisoquinolin-7-yl}methanesulfonamide]	102%
CCn1ccc2c(c1=O)[C@@H](Cc1cccc(-c3cccc4c3OCC4)c1)[C@@H](NS(C)(=O)=O)CC2 (racemic) [Example 126, rac-N-[(7S,8R)-8-{[3-(2,3-dihydro-1-benzofuran-7-yl)phenyl]methyl}-2-ethyl-1-oxo-1,2,5,6,7,8-hexahydroisoquinolin-7-yl]methanesulfonamide]	103%

Next, values leading:

0X2R agonist activity (3 μM, %)	SMILES
91%	CC(C)n1cnc2c(c1=O)[C@@H](Cc1cccc(-c3cccc(F)c3F)c1F)[C@@H](NS(=O)(=O)CF)CC2 [Example 196, 1-fluoro-N-{(5R,6S)-4-oxo-3-(propan-2-yl)-5-[(2,2′,3′-trifluoro[1,1′-biphenyl]-3-yl)methyl]-3,4,5,6,7,8-hexahydroquinazolin-6-yl}methanesulfonamide]
91%	CC(C)n1cnc2c(c1=O)[C@@H](Cc1csc(-c3ccccc3)n1)[C@@H](NS(=O)(=O)C1CC1)CC2 (relative stereo) [Example 169, rel-N-[(5R,6S)-4-oxo-5-[(2-phenyl-1,3-thiazol-4-yl)methyl]-3-(propan-2-yl)-3,4,5,6,7,8-hexahydroquinazolin-6-yl]cyclopropanesulfonamide]
52%	Cc1ccc2n(c1=O)C(Cc1ccc(-c3ccccc3)cc1)C(NS(C)(=O)=O)CC2 (racemic) [Example 214, rac-N-{(3S,4S)-4-[([1,1′-biphenyl]-4-yl)methyl]-7-methyl-6-oxo-1,3,4,6-tetrahydro-2H-quinolizin-yl}methanesulfonamide]
91%	CC(C)n1cnc2c(c1=O)[C@@H](Cc1cccc(-c3cccc(F)c3)c1F)[C@@H](NS(=O)(=O)C1(F)CC1)CC2 [Example 181, N-[(5R,6S)-5-[(2,3′-difluoro[1,1′-biphenyl]-3-yl)methyl]-4-oxo-3-(propan-2-yl)-3,4,5,6,7,8-hexahydroquinazolin-6-yl]-1-fluorocyclopropane-1-sulfonamide]
99%	[2H]C([2H])([2H])C([2H])(n1cnc2c(c1=O)C(Cc1cccc(-c3ccccc3)c1F)C(NS(=O)(=O)C1CC1)CC2)C([2H])([2H])[2H] [Example 212, rel-N-{(5R,6S)-5-[(2-fluoro[1,1′-biphenyl]-3-yl)methyl]-4-oxo-3-[(~2~H_7_)propan-2-yl]-3,4,5,6,7,8-hexahydroquinazolin-6-yl}cyclopropanesulfonamide]

Source: US12071434B2, “Heterocyclic compound” (Takeda Pharmaceutical Company Limited, priority 2018, dated 2024)
